Measurements reported in patent US7501430B2 (ArQule, Inc., priority 2006, dated 2009).

What follows are molecules tested against T1, mutant B-RAF (Homo sapiens, UniProt P15056, V600E) (assay: RAF biochemical assay (MEK-1 phosphorylation, anti-phospho MEK1/2 detection)). Settings: read-out: Mutant B-RAF IC50.
T1 construct: purchased Upstate (Charlottesville, Va.)
How it was run: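 Detection is by ELISA: after a 30 min room-temperature reaction, plate-captured GST-MEK-1 is probed with anti-phospho MEK1/2, then an AP-tagged secondary antibody with fluorescent Attophos read-out.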

T1 sequence (P15056 whole entry V600E): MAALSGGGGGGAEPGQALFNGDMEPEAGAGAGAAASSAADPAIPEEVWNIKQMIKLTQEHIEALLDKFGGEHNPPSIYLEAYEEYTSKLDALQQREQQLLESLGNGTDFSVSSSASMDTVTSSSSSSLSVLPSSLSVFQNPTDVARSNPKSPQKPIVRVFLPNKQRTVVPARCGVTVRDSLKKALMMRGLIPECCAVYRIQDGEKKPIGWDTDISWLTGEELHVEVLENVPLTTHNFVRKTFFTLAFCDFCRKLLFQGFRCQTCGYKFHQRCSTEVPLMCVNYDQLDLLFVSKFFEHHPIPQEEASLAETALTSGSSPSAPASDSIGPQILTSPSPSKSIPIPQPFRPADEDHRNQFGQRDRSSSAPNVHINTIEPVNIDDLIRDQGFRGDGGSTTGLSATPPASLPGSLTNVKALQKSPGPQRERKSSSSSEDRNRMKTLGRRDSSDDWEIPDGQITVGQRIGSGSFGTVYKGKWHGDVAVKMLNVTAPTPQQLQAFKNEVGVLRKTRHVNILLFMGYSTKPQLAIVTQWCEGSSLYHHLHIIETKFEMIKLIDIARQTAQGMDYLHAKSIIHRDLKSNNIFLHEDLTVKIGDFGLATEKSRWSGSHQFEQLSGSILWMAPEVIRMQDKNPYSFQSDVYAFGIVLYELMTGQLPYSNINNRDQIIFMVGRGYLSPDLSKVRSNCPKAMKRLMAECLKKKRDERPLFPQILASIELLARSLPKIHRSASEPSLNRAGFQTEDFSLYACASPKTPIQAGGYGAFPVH

| SMILES | IC50 |
| --- | --- |
| COc1cccc(-c2nc3sccn3c2-c2ccnc(N[C@@H]3CCCN(C(=O)Nc4ccc(SC)cc4)C3)n2)c1 [Example 330, (3R)-3-({4-[6-(3-methoxyphenyl)imidazo[2,1-b][1,3]thiazol-5-yl]pyrimidin-2-yl}amino)-N-[4-(methylthio)phenyl]piperidine-1-carboxamide] | 4000 nM |
| Oc1cccc(-c2nc3sccn3c2-c2ccnc(N[C@@H]3CCCN(CC(O)COc4ccc(Cl)cc4)C3)n2)c1 (stereo partly drawn) [Example 331, 3-{5-[2-({(3R)-1-[3-(4-chlorophenoxy)-2-hydroxypropyl]piperidin-3-yl}amino)pyrimidin-4-yl]imidazo[2,1-b][1,3]thiazol-6-yl}phenol] | 1040 nM |
| CC(C)NC(=O)N1CCC[C@@H](Nc2nccc(-c3c(-c4cccc(O)c4)nc4sccn34)n2)C1 [Example 334, (3R)-3-({4-[6-(3-hydroxyphenyl)imidazo[2,1-b][1,3]thiazol-5-yl]pyrimidin-2-yl}amino)-N-isopropylpiperidine-1-carboxamide] | 650 nM |
| COc1cccc(-c2nc3occn3c2-c2ccnc(NC3CCNCC3)n2)c1 [Example 337, 4-[6-(3-methoxyphenyl)imidazo[2,1-b][1,3]oxazol-5-yl]-N-piperidin-4-ylpyrimidin-2-amine] | 3210 nM |
| COc1cccc(-c2nc3occn3c2-c2ccnc(NC3CCN(S(=O)(=O)C4CC4)CC3)n2)c1 [Example 338, N-[1-(cyclopropylsulfonyl)piperidin-4-yl]-4-[6-(3-methoxyphenyl)imidazo[2,1-b][1,3]oxazol-5-yl]pyrimidin-2-amine] | 6990 nM |
| O=C(OC[C@H](O)CO)c1ccc(S(=O)(=O)N2CCC[C@@H](Nc3nccc(-c4c(-c5cccc(O)c5)nc5sccn45)n3)C2)cc1 [Example 341, (2R)-2,3-dihydroxypropyl 4-{[(3R)-3-({4-[6-(3-hydroxyphenyl)imidazo[2,1-b][1,3]thiazol-5-yl]pyrimidin-2-yl}amino)piperidin-1-yl]sulfonyl}benzoate] | 33 nM |
| CS(=O)(=O)N1CCC(Nc2nccc(-c3c(-c4cccc(O)c4)nc4occn34)n2)CC1 [Example 342, 3-[5-(2-{[1-(methylsulfonyl)piperidin-4-yl]amino}pyrimidin-4-yl)imidazo[2,1-b][1,3]oxazol-6-yl]phenol] | 258 nM |
| CSc1ccc(NC(=O)N2CCC[C@@H](Nc3nccc(-c4c(-c5cccc(O)c5)nc5sccn45)n3)C2)cc1 [Example 344, (3R)-3-({4-[6-(3-hydroxyphenyl)imidazo[2,1-b][1,3]thiazol-5-yl]pyrimidin-2-yl}amino)-N-[4-(methylthio)phenyl]piperidine-1-carboxamide] | 2450 nM |
| CS(=O)(=O)Nc1cccc(-c2nc3sccn3c2-c2ccnc(N[C@@H]3CCCN(S(=O)(=O)c4ccc(Cl)cc4)C3)n2)c1 [Example 346, N-(3-{5-[2-({(3R)-1-[(4-chlorophenyl)sulfonyl]piperidin-3-yl}amino)pyrimidin-4-yl]imidazo[2,1-b][1,3]thiazol-6-yl}phenyl)methanesulfonamide] | 880 nM |
| COc1cc(-c2nc3sccn3c2-c2ccnc(NC3CCN(S(=O)(=O)C4CC4)CC3)n2)ccc1F [Example 349, N-[1-(cyclopropylsulfonyl)piperidin-4-yl]-4-[6-(4-fluoro-3-methoxyphenyl)imidazo[2,1-b][1,3]thiazol-5-yl]pyrimidin-2-amine] | 2600 nM |
| CC(C)NC(=O)N1CCC(Nc2nccc(-c3c(-c4cccc(O)c4)nc4sccn34)n2)CC1 [Example 351, 4-({4-[6-(3-hydroxyphenyl)imidazo[2,1-b][1,3]thiazol-5-yl]pyrimidin-2-yl}amino)-N-isopropylpiperidine-1-carboxamide] | 940 nM |
| CNC(=O)N1CCC(Nc2nccc(-c3c(-c4cccc(O)c4)nc4sccn34)n2)CC1 [Example 352, 4-({4-[6-(3-hydroxyphenyl)imidazo[2,1-b][1,3]thiazol-5-yl]pyrimidin-2-yl}amino)-N-methylpiperidine-1-carboxamide] | 670 nM |
| O=S(=O)(C1CC1)N1CCC(Nc2nccc(-c3c(-c4ccc(F)c(O)c4)nc4sccn34)n2)CC1 [Example 354, 5-[5-(2-{[1-(cyclopropylsulfonyl)piperidin-4-yl]amino}pyrimidin-4-yl)imidazo[2,1-b][1,3]thiazol-6-yl]-2-fluorophenol] | 0.03 nM |
| CCCNC(=O)N1CCC(Nc2nccc(-c3c(-c4cccc(O)c4)nc4sccn34)n2)CC1 [Example 355, 4-({4-[6-(3-hydroxyphenyl)imidazo[2,1-b][1,3]thiazol-5-yl]pyrimidin-2-yl}amino)-N-propylpiperidine-1-carboxamide] | 1790 nM |

Further lines, results first:

| IC50 | SMILES |
| --- | --- |
| 4000 nM | COc1cccc(-c2nc3sccn3c2-c2ccnc(N[C@@H]3CCCN(S(=O)(=O)C4CC4)C3)n2)c1 [Example 325, N-[(3R)-1-(cyclopropylsulfonyl)piperidin-3-yl]-4-[6-(3-methoxyphenyl)imidazo[2,1-b][1,3]thiazol-5-yl]pyrimidin-2-amine] |
| 4000 nM | COc1cccc(-c2nc3sccn3c2-c2ccnc(NC3CCN(S(C)(=O)=O)CC3)n2)c1 [Example 326, 4-[6-(3-methoxyphenyl)imidazo[2,1-b][1,3]thiazol-5-yl]-N-[1-(methylsulfonyl)piperidin-4-yl]pyrimidin-2-amine] |
| 4000 nM | COc1cccc(-c2nc3sccn3c2-c2ccnc(N[C@@H]3CCCN(C(=O)Nc4ccc(F)cc4)C3)n2)c1 [Example 327, (3R)-N-(4-fluorophenyl)-3-({4-[6-(3-methoxyphenyl)imidazo[2,1-b][1,3]thiazol-5-yl]pyrimidin-2-yl}amino)piperidine-1-carboxamide] |
| 4000 nM | COc1cccc(-c2nc3sccn3c2-c2ccnc(N[C@@H]3CCCN(C(=O)NC4CCCCC4)C3)n2)c1 [Example 328, (3R)-N-cyclohexyl-3-({4-[6-(3-methoxyphenyl)imidazo[2,1-b][1,3]thiazol-5-yl]pyrimidin-2-yl}amino)piperidine-1-carboxamide] |
| 4000 nM | CCOc1ccc(NC(=O)N2CCC[C@@H](Nc3nccc(-c4c(-c5cccc(OC)c5)nc5sccn45)n3)C2)cc1 [Example 329, (3R)-N-(4-ethoxyphenyl)-3-({4-[6-(3-methoxyphenyl)imidazo[2,1-b][1,3]thiazol-5-yl]pyri-midin-2-yl}amino)piperidine-1-carboxamide] |
| 10 nM | CS(=O)(=O)N1CCC(Nc2nccc(-c3c(-c4cccc(O)c4)nc4sccn34)n2)CC1 [Example 332, 3-[5-(2-{[1-(methylsulfonyl)piperidin-4-yl]amino}pyrimidin-4-yl)imidazo[2,1-b][1,3]thiazol-6-yl}phenol] |
| 906 nM | Oc1cccc(-c2nc3occn3c2-c2ccnc(N[C@@H]3CCCNC3)n2)c1 [Example 333, 3-(5-{2-[(3R)-piperidin-3-ylamino]pyrimidin-4-yl}imidazo[2,1-b][1,3]oxazol-6-yl}phenol] |
| 3260 nM | O=C(Nc1ccc(F)cc1)N1CCC[C@@H](Nc2nccc(-c3c(-c4cccc(O)c4)nc4sccn34)n2)C1 [Example 335, (3R)-N-(4-fluorophenyl)-3-({4-[6-(3-hydroxyphenyl)imidazo[2,1-b][1,3]thiazol-5-yl]pyrimidin-2-yl}amino)piperidine-1-carboxamide] |
| 1050 nM | O=C(NS(=O)(=O)c1ccc(Cl)cc1)N1CCC(Nc2nccc(-c3c(-c4cccc(O)c4)nc4sccn34)n2)CC1 [Example 336, N-[(4-chlorophenyl)sulfonyl]-4-({4-[6-(3-hydroxyphenyl)imidazo[2,1-b][1,3]thiazol-5-yl]pyrimidin-2-yl}amino)piperidine-1-carboxamide] |
| 46 nM | O=S(=O)(C1CC1)N1CCC(Nc2nccc(-c3c(-c4cccc(O)c4)nc4occn34)n2)CC1 [Example 339, 3-[5-(2-{[1-(cyclopropylsulfonyl)piperidin-4-yl]amino}pyrimidin-4-yl)imidazo[2,1-b][1,3]oxazol-6-yl]phenol] |
| 1440 nM | O=C(Nc1ccc(O)cc1)N1CCC[C@@H](Nc2nccc(-c3c(-c4cccc(O)c4)nc4sccn34)n2)C1 [Example 343, (3R)-N-(4-hydroxyphenyl)-3-({4-[6-(3-hydroxyphenyl)imidazo[2,1-b][1,3]thiazol-5-yl]pyrimidin-2-yl}amino)piperidine-1-carboxamide] |
| 546 nM | CCNC(=O)Nc1cccc(-c2nc3sccn3c2-c2ccnc(N[C@@H]3CCCN(S(=O)(=O)c4ccc(Cl)cc4)C3)n2)c1 [Example 347, 1-(3-{5-[2-({(3R)-1-[(4-chlorophenyl)sulfonyl]piperidin-3-yl}amino)pyrimidin-4-yl]imidazo[2,1-b][1,3]thiazol-6-yl}phenyl)-3-ethyl urea] |
| 105 nM | COc1cc(-c2nc3sccn3c2-c2ccnc(N[C@@H]3CCCN(S(=O)(=O)c4ccc(Cl)cc4)C3)n2)ccc1F [Example 348, N-{(3R)-1-[(4-chlorophenyl)sulfonyl]piperidin-3-yl}-4-[6-(4-fluoro-3-methoxyphenyl)imidazo[2,1-b][1,3]thiazol-5-yl]pyrimidin-2-amine] |
| 140 nM | NC(=O)c1cccc(-c2nc3sccn3c2-c2ccnc(N[C@@H]3CCCN(S(=O)(=O)c4ccc(Cl)cc4)C3)n2)c1 [Example 350, 3-{5-[2-({(3R)-1-[(4-chlorophenyl)sulfonyl]piperidin-3-yl}amino)pyrimidin-4-yl]imidazo[2,1-b][1,3]thiazol-6-yl}benzamide] |
| 3 nM | O=S(=O)(c1ccc(Cl)cc1)N1CCC[C@@H](Nc2nccc(-c3c(-c4ccc(F)c(O)c4)nc4sccn34)n2)C1 [Example 353, 5-{5-[2-({(3R)-1-[(4-chlorophenyl)suifonyl]piperidin-3-yl}amino)pyrimidin-4-yl]imidazo[2,1-b][1,3]thiazol-6-yl}-2-fluorophenol] |
| 2540 nM | O=C(NC1CCCC1)N1CCC(Nc2nccc(-c3c(-c4cccc(O)c4)nc4sccn34)n2)CC1 [Example 356, N-cyclopentyl-4-({4-[6-(3-hydroxyphenyl)imidazo[2,1-b][1,3]thiazol-5-yl]pyrimidin-2-yl}amino)piperidine-1-carboxamide] |
